One test has as its target T1, SETD2(1434-1711) (Homo sapiens, UniProt Q9BYW2).
T1 construct: SETD2 (1434-1711) Assay; catalogue N/A
T1 sequence (Q9BYW2 1434-1711): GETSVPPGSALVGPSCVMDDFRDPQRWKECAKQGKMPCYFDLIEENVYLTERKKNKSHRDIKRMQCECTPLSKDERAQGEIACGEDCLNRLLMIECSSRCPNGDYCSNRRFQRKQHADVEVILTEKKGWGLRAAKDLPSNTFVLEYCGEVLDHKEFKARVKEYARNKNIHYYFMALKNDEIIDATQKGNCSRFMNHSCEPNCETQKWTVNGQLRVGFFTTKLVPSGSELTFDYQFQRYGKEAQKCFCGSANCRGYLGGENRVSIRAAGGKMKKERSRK
Put plainly: SETD2 (1434-1711) assay. It is filed as biochemical. To be noted: read-out: SETD2 (1434-1711).

For a further test, the system named is H3K36me3 in A549 cells. Put plainly: In-Cell Western (ICW) assay of SETD2 inhibitors (A549 assay). It is filed as cell-based, human. The settings on record: A549 cells, read-out: SETD2 A549. In a few lines: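 H3K36me3 In-Cell Western: cells exposed to compound for 3 days at 4,000 cells/well, 37° C. DRAQ5 (1:1000) marked cell number, with 700/800-channel Licor read-out.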

Read-outs that look alike come from different tables or passages of the source.

These results are taken from patent US12116358B2, “Substituted indoles and methods of use thereof” (EPIZYME, INC., priority 2018, dated 2024).

On to `Cc1ccc(F)c2cc(C(=O)Nc3cccc(N4CCC(N5CCC(F)(F)CC5)C4)c3)[nH]c12` (centres unmarked) [compound 153], for which the IC50 amounted to 50 nM at SETD2(1434-1711) and 300 nM in the test with H3K36me3 in A549 cells (Homo sapiens).

As for `Cc1ccc(F)c2cc(C(=O)Nc3cccc(N4C[C@@H](O)[C@H](N(C)C)C4)c3)[nH]c12` [compound 154], the IC50 on SETD2(1434-1711) worked out at 30 nM; in the test with H3K36me3 in A549 cells (Homo sapiens), 300 nM.

`COC1CN(C2CCN(c3cccc(NC(=O)c4cc5c(F)ccc(C)c5[nH]4)c3)CC2)C1` [compound 155]: the IC50 turned out to be 50 nM at SETD2(1434-1711) and 300 nM in the test with H3K36me3 in A549 cells (Homo sapiens).

As to `COCCN(C)C1CCN(c2cccc(NC(=O)c3cc4c(F)ccc(C)c4[nH]3)c2)C1` (centres unmarked) [compound 156], the IC50 on SETD2(1434-1711) is 30 nM; in the test with H3K36me3 in A549 cells (Homo sapiens), 300 nM.

Turning to `Cc1ccc(F)c2cc(C(=O)Nc3cccc(N4CCC(Nc5cccnc5)CC4)c3)[nH]c12` [compound 157], the figures for the IC50 at SETD2(1434-1711) and in the test with H3K36me3 in A549 cells (Homo sapiens) were 50 nM and 300 nM, respectively.

Take `Cc1ccc(F)c2cc(C(=O)Nc3cc(F)cc(N4CCC(C)(N5CCOCC5)C4)c3)[nH]c12` (centres unmarked) [compound 159]: the IC50 on SETD2(1434-1711) came to 80 nM; in the test with H3K36me3 in A549 cells (Homo sapiens), 300 nM.

As to `Cc1ccc(F)c2cc(C(=O)Nc3cccc(C4CCN(C)C(=O)C4)c3)[nH]c12` (centres unmarked) [compound 160], the figures for the IC50 on SETD2(1434-1711) and with H3K36me3 in A549 cells (Homo sapiens) were 90 nM and 300 nM, respectively.

`Cc1ccc(F)c2cc(C(=O)Nc3cccc(-n4cncn4)c3)[nH]c12` [compound 162]: the IC50 was found to be 90 nM on SETD2(1434-1711) and 300 nM in the test with H3K36me3 in A549 cells (Homo sapiens).

Turning to `CC(=O)N1C2CCC1CN(c1cccc(NC(=O)c3cc4c(F)ccc(C)c4[nH]3)c1)C2` [compound 163], the IC50 on SETD2(1434-1711) came to 30 nM; in the test with H3K36me3 in A549 cells, 300 nM.

For `Cc1ccc(F)c2cc(C(=O)Nc3cccc(-c4cnn(CCN5CCOCC5)c4)c3)[nH]c12` [compound 164], the results for the IC50 at SETD2(1434-1711) and with H3K36me3 in A549 cells (Homo sapiens) were 100 nM and 300 nM, respectively.

Consider `Cc1ccc(F)c2cc(C(=O)Nc3cccc(N4CC5CN(C)CC5C4)c3)[nH]c12` (centres unmarked) [compound 165], for which the IC50 came out at 10 nM on SETD2(1434-1711) and 300 nM with H3K36me3 in A549 cells (Homo sapiens).

Turning to `Cc1ccc(F)c2cc(C(=O)Nc3cccc([C@H]4CCN5C(=O)CC[C@@H]5C4)c3)[nH]c12` [compound 166], the IC50 on SETD2(1434-1711) was 70 nM; with H3K36me3 in A549 cells (Homo sapiens) it was 300 nM.

For the compound `Cc1ccc(F)c2cc(C(=O)Nc3cccc(N4CCOC(CN(C)C)C4)c3)[nH]c12` (centres unmarked) [compound 167], the values for the IC50 at SETD2(1434-1711) and with H3K36me3 in A549 cells (Homo sapiens) were 50 nM and 300 nM, respectively.

In the case of `Cc1ccc(F)c2cc(C(=O)Nc3cccc(C4CCN(C)CC4)c3)[nH]c12` [compound 168], the IC50 on SETD2(1434-1711) was determined as 20 nM; with H3K36me3 in A549 cells (Homo sapiens), 300 nM.

In the case of `Cc1ccc(F)c2cc(C(=O)Nc3cccc(N4CCN(C(=O)CC#N)CC4)c3)[nH]c12` [compound 170], the IC50 at SETD2(1434-1711) worked out at 50 nM; with H3K36me3 in A549 cells (Homo sapiens) it was 300 nM.

Regarding `Cc1ccc(F)c2cc(C(=O)Nc3cccc(-c4nccn4C)c3)[nH]c12` [compound 171], the IC50 on SETD2(1434-1711) was determined as 100 nM; in the test with H3K36me3 in A549 cells (Homo sapiens), 300 nM.

Turning to `Cc1ccc(F)c2cc(C(=O)Nc3cccc(N4CCC5C(CCN5C)C4)c3)[nH]c12` (centres unmarked) [compound 172], the IC50 was found to be 20 nM on SETD2(1434-1711) and 300 nM in the test with H3K36me3 in A549 cells.

With `COCC1(COC)CCN(c2cccc(NC(=O)c3cc4c(F)ccc(C)c4[nH]3)c2)CC1` [compound 173], the figures for the IC50 on SETD2(1434-1711) and with H3K36me3 in A549 cells (Homo sapiens) were 70 nM and 300 nM, respectively.

Take `Cc1ccc(F)c2cc(C(=O)Nc3cccc(N4CCC(N5CC(O)C5)C4)c3)[nH]c12` (centres unmarked) [compound 174]: the IC50 was 50 nM at SETD2(1434-1711) and 300 nM with H3K36me3 in A549 cells (Homo sapiens).

For `Cc1cccnc1C(Cc1cnn(CC2CC2)c1)NC(=O)c1cc2cccc(C)c2[nH]1` (centres unmarked) [compound 175], the values for the IC50 on SETD2(1434-1711) and with H3K36me3 in A549 cells (Homo sapiens) were 70 nM and 300 nM, respectively.

Take `Cc1ccc(F)c2cc(C(=O)Nc3cccc(N4CCN(S(C)(=O)=O)CC4)c3)[nH]c12` [compound 176]: the figures for the IC50 on SETD2(1434-1711) and with H3K36me3 in A549 cells (Homo sapiens) were 100 nM and 300 nM, respectively.

On to `Cc1ccc(F)c2cc(C(=O)Nc3cccc(C4CNC(=O)C4)c3)[nH]c12` (centres unmarked) [compound 177], for which the IC50 on SETD2(1434-1711) amounted to 100 nM; in the test on H3K36me3 in A549 cells (Homo sapiens), 400 nM.

On to `Cc1ccc(F)c2cc(C(=O)Nc3cccc(N4CCC(N5CCC5)C4)c3)[nH]c12` (centres unmarked) [compound 178], for which the IC50 on SETD2(1434-1711) was found to be 10 nM; in the test on H3K36me3 in A549 cells (Homo sapiens), 400 nM.

Consider `Cc1ccc(F)c2cc(C(=O)Nc3cccc(N4CCC5(CC4)CNC5)c3)[nH]c12` [compound 179], for which the values for the IC50 on SETD2(1434-1711) and in the test with H3K36me3 in A549 cells (Homo sapiens) were 10 nM and 400 nM, respectively.

In the case of `Cc1ccc(F)c2cc(C(=O)Nc3cccc(N4CCC(N5CCCC5)CC4)c3)[nH]c12` [compound 180], the IC50 at SETD2(1434-1711) was 30 nM; in the test on H3K36me3 in A549 cells (Homo sapiens), 400 nM.
